Laboratory results: ChEMBL document CHEMBL1152374, “Regioselective synthesis of methylated epigallocatechin gallate via nitrobenzenesulfonyl (Ns) protecting group” (Bioorg Med Chem Lett, 2009)

Assays:
[1] = molecular target: Matrix metalloproteinase-14 (Homo sapiens, UniProt P50281); assay: Inhibition of human recombinant MT1-MMP expressed in Escherichia coli by fluorogenic peptide cleavage assay
Matrilysin = molecular target: T1, Matrilysin (Homo sapiens, UniProt P09237); assay: Inhibition of human recombinant MMP7 expressed in Escherichia coli by fluorogenic peptide cleavage assay
T1 sequence (P09237 whole entry): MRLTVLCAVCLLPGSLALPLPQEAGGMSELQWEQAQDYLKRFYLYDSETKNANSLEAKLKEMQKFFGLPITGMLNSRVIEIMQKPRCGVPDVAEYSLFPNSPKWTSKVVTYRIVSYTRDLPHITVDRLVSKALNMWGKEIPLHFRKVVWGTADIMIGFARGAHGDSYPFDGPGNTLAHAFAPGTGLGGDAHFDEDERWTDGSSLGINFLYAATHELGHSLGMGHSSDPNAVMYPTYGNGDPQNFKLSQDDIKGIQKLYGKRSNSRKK

[2] = molecular target: 72 kDa type IV collagenase (Homo sapiens, UniProt P08253); assay: Inhibition of human recombinant MMP2 expressed in Escherichia coli by fluorogenic peptide cleavage assay
Chain of 72 kDa type IV collagenase (P08253 whole entry): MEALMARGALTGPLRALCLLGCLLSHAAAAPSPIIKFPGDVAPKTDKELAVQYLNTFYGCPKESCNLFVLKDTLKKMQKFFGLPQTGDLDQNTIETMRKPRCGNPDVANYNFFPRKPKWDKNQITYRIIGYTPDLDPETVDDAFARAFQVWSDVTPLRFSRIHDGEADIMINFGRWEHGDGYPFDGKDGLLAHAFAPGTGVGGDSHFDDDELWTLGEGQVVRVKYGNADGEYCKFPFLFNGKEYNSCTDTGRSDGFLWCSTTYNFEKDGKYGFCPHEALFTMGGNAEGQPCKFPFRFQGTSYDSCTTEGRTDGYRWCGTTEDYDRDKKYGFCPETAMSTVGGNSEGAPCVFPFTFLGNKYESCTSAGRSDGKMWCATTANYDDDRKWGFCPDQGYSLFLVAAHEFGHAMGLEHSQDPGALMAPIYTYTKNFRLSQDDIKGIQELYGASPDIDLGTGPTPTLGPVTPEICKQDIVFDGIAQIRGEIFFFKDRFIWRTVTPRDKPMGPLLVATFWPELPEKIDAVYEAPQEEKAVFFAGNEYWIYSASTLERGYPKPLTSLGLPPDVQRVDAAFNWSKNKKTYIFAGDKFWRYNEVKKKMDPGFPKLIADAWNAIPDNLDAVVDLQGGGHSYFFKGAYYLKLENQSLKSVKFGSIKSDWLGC

Row | SMILES | IC50 [1] | IC50 (Matrilysin) | IC50 [2]
1 | COc1cc(C(=O)O[C@@H]2Cc3c(O)cc(O)cc3O[C@@H]2c2ccc(O)c(O)c2)cc(O)c1O | 15.6 µM | > 100 µM | 88 µM
2 | COc1c(O)cc(C(=O)O[C@@H]2Cc3c(O)cc(O)cc3O[C@@H]2c2ccc(O)c(O)c2)cc1O | 3.7 µM | > 100 µM | 34 µM
3 | COc1cc(C(=O)O[C@@H]2Cc3c(O)cc(O)cc3O[C@H]2c2cc(O)c(O)c(O)c2)cc(O)c1O | 3.1 µM | 20 µM | 5.4 µM
4 | COc1c(O)cc(C(=O)O[C@@H]2Cc3c(O)cc(O)cc3O[C@H]2c2cc(O)c(O)c(O)c2)cc1O | 10.5 µM | 32 µM | 19 µM
5 | COc1cc(C(=O)O[C@H]2Cc3c(O)cc(O)cc3O[C@@H]2c2ccc(O)c(O)c2)cc(O)c1O | 52 µM | > 100 µM | 28 µM
6 | COc1c(O)cc(C(=O)O[C@H]2Cc3c(O)cc(O)cc3O[C@@H]2c2ccc(O)c(O)c2)cc1O | > 100 µM | > 100 µM | 22 µM
7 | COc1c(O)cc(C(=O)O[C@@H]2Cc3c(O)cc(O)cc3O[C@@H]2c2cc(O)c(O)c(O)c2)cc1O | 12.5 µM | 72 µM | 18.7 µM
8 | COc1cc(C(=O)O[C@@H]2Cc3c(O)cc(O)cc3O[C@@H]2c2cc(O)c(O)c(O)c2)cc(O)c1O | 1.7 µM | 20 µM | 8.7 µM
9 | O=C(O[C@@H]1Cc2c(O)cc(O)cc2O[C@@H]1c1cc(O)c(O)c(O)c1)c1cc(O)c(O)c(O)c1 [EPIGALOCATECHIN GALLATE] | 6.8 µM | 21.5 µM | 9.6 µM
